Consider 36 compounds from US9884806B2, “Cyclic vinylogous amides as bromodomain inhibitors” (ICAHN SCHOOL OF MEDICINE AT MOUNT SINAI, priority 2013, dated 2018).

A value given as a limit tells only on which side of the number the result lay.

In one assay the target is T1, BRD4_2 (Homo sapiens, UniProt O60885).
T1 construct: contains two tandem bromodomains (BrD1 and BrD2)
As to the kind of experiment: Fluorescence anisotropy binding assay (competition with FITC-labeled MS417 probe), BRD4_2. To be noted: FITC-MS417 probe 80 nM, PBS pH 7.4, 1 hour, 25° C. On the technique in general: Polarisation of emitted light reports the rotation of a fluorescent probe.

Assay [1] deals with T2, first bromodomain (BrD1) of human BRD4 (Homo sapiens, UniProt O60885).
T2 construct: the first bromodomain (BrD1) of human BRD4; poly-His (cleaved yes); made in house
Put plainly: Fluorescence anisotropy binding assay (competition with FITC-labeled MS417 probe). The following applies: FITC-MS417 probe 80 nM, PBS pH 7.4, 1 hour, 25° C., read-out: BRD4_1 IC50. The protocol:
Fluorescence Anisotropy Binding Assay
Expression and purification of the first bromodomain (BrD1) of human BRD4 in poly-His tag form was performed using a procedure described in the literature [See Zeng et al. Structure 16, 643-652 (2008) and Zhang et al., J Biol Chem 287, 28840-28851 (2012).] The protein was purified by using affinity chromatography on a nickel-IDA column (Invitrogen), followed by the removal of poly-His tag by thrombin cleavage.
Binding affinity of the newly synthesized compounds to the BRD4 BrD1 was assessed in a fluorescence anisotropy assay using a fluorescein isothiocyanate (FITC)-labeled MS417 as an assay probe (Zhang et al. 2008 op.cit.). Competition binding was performed with a BrD protein (0.25 to 1 μM) and the fluorescent probe (80 nM), and increasing concentration of unlabeled competing ligand in a PBS buffer (pH 7.4) in total volume of 80 μL. Measurements were obtained after 1 hour incubation of the fluorescent ligand and the protein at 25° C. with Safire 2 microplate reader (Tecan). In the assay, fluorescent ligand concentration was ≦2Kd, and protein concentration was set at which 50-80% of fluorescent ligand is bound. Dissociation constant of a competing ligand was calculated with the correction to Cheng-Prussoff equation introduced by Nicolovska-Coleska and colleagues [Nikolovska-Coleska, Z. et al., Anal Biochem 332, 261-273 (2004). Assuming one-site competitive binding model, the equation used to calculate Ki's from IC50 values recovered from fitting data using Prism:
[formula] where [I50] is the concentration of free inhibitor at 50% inhibition, [L50], the concentration of free labeled ligand at 50% inhibition, and [P0], concentration of free protein at 0% inhibition. Note that Kd for each protein-probe pair is the limit of resolvable Ki in a competition assay.

Turning to `COC(=O)c1ccc(NC2=CC(=O)CC2)cc1` [Example 01-1], the IC50 (at BRD4_2; in assay [1]) was 1 to 10 µM throughout.
As to `NC(=O)c1ccc(NC2=CC(=O)CC2)cc1` [Example 01-2], the concentration for half-maximal inhibition (IC50) (on BRD4_2; in assay [1]) was 1 to 10 µM in each case.
`CC1=C(Nc2cccc(C(=O)O)c2)CCC1=O` [Example 01-3]: the half-inhibitory concentration (IC50) at BRD4_2 is 1 to 10 µM; in assay [1], greater than 10 µM.
As for `COC(=O)c1cccc(NC2=C(C)C(=O)CC2)c1` [Example 01-4], the IC50 at BRD4_2 was greater than 10 µM; in assay [1], 1 to 10 µM.
Taken in the same sequence, the figures for `CC1=C(Nc2ccc(S(N)(=O)=O)cc2)CCC1=O` [Example 01-6] were greater than 10 µM and greater than 10 µM.
For `CC1=C(Nc2ccc(C#N)cc2)CCC1=O` [Example 01-7] the same measures were greater than 10 µM and greater than 10 µM.
Taken in the same sequence, the figures for `CC(=O)c1ccc(NC2=C(C)C(=O)CC2)cc1` [Example 01-9] were greater than 10 µM and 1 to 10 µM.
For the compound `COC(=O)c1ccc(NC2=C(C)C(=O)CC2)c(Cl)c1` [Example 01-11, methyl 3-chloro-4((2-methyl-3-oxocyclopent-1-en-1-yl)amino)benzoate], the IC50 (at BRD4_2; in assay [1]) was 1 to 10 µM throughout.
In the case of `COC(=O)c1ccccc1NC1=C(C)C(=O)CC1` [Example 01-19, methyl 2-((2-methyl-3-oxocyclopent-1-en-1-yl)amino)benzoate], the half-inhibitory concentration (IC50) (on BRD4_2; in assay [1]) was greater than 10 µM throughout.
For `CC1=C(Nc2ccc(S(=O)(=O)Nc3ccccn3)cc2)CCC1=O` [Example 01-31, 4-((2-methyl-3-oxocyclopent-1-en-1-yl)amino)-N-(pyridin-2-yl)benzenesulfonamide], the IC50 (at BRD4_2; in assay [1]) was 1 to 10 µM throughout.
On to `CC1=C(NC2CCN(C(=O)OC(C)(C)C)CC2)CCC1=O` [Example 01-32, tert-Butyl 4-((2-methyl-3-oxocyclopent-1-en-1-yl)amino)piperidine-1-carboxylate], for which the IC50 (on BRD4_2; in assay [1]) was greater than 10 µM throughout.
For `CC1=C(N[C@H]2CC[C@H](C(=O)O)CC2)CCC1=O` [Example 01-33, trans-(1R,4R)-4-((2-methyl-3-oxocyclopent-1-en-1-yl)amino)cyclo6hexane-carboxylic acid], the IC50 (at BRD4_2; in assay [1]) was greater than 10 µM throughout.
For the compound `CC1=C(N[C@H]2CC[C@@H](C(=O)O)CC2)CCC1=O` [Example 01-34, cis-(1S,4S)-4-((2-methyl-3-oxocyclopent-1-en-1-yl)amino)cyclohexanecarboxylic acid], the IC50 (at BRD4_2; in assay [1]) was greater than 10 µM each time.
`CC1=C(Nc2cccc(S(N)(=O)=O)c2)CCC1=O` [Example 01-45, 3((2-methyl-3-oxocyclopent-1-en-1-yl)amino)benzenesulfonamide]: the concentration for half-maximal inhibition (IC50) (on BRD4_2; in assay [1]) was 1 to 10 µM in each case.
Consider `CC1=C(Nc2cc(S(N)(=O)=O)ccc2Cl)CCC1=O` [Example 01-46, 4-chloro-3-((2-methyl-3-oxocyclopent-1-en-1-yl)amino)benzene-sulfonamide], for which the IC50 (on BRD4_2; in assay [1]) was 1 to 10 µM throughout.
Consider `CC1=C(Nc2cccc(N)c2Cl)CCCC1=O` [Example 02-11, 3-((3-amino-2-chlorophenyl)amino)-2-methylcyclohex-2-enone], for which the IC50 at BRD4_2 is greater than 10 µM; in assay [1], 1 to 10 µM.
Taken in the same sequence, the figures for `CC1=C(Nc2ccc(N)cc2Cl)CCC1=O` [Example 02-14, 3-((4-amino-2-chlorophenyl)amino)-2-methylcyclopent-2-enone] were 1 to 10 µM and 1 to 10 µM.
Taken in the same sequence, the figures for `CC1=C(Nc2ccc(C(=O)Nc3ccccc3)cc2)CCC1=O` [Example 03-1] were 1 to 10 µM and 1 to 10 µM.
For `CC1=C(Nc2ccc(C(=O)N(C)c3ccccc3)cc2)CCC1=O` [Example 03-2] the same measures were greater than 10 µM and greater than 10 µM.
Regarding `COc1ccc(NC(=O)c2ccc(NC3=C(C)C(=O)CC3)cc2)cc1` [Example 03-6], the 50% inhibitory concentration (IC50) (on BRD4_2; in assay [1]) was 1 to 10 µM in each case.
`CC1=C(Nc2ccc(C(=O)Nc3ccc(C)cc3)cc2)CCC1=O` [Example 03-7]: the IC50 (on BRD4_2; in assay [1]) was 1 to 10 µM each time.
On to `CC1=C(Nc2ccc(C(=O)Nc3cccc(C)c3)cc2)CCC1=O` [Example 03-9], for which the IC50 (on BRD4_2; in assay [1]) was 1 to 10 µM in each case.
Regarding `COc1ccccc1NC(=O)c1ccc(NC2=C(C)C(=O)CC2)cc1` [Example 03-10, N-(2-methoxyphenyl)-4-((2-methyl-3-oxocyclopent-1-en-1-yl)amino)benzamide], the half-inhibitory concentration (IC50) (at BRD4_2; in assay [1]) was 1 to 10 µM throughout.
On to `COc1cccc(NC(=O)c2ccc(NC3=C(C)C(=O)CC3)cc2)c1` [Example 03-11, N-(3-methoxyphenyl)-4-((2-methyl-3-oxocyclopent-1-en-1-yl)amino)benzamide], for which the IC50 on BRD4_2 was greater than 10 µM; in assay [1], 1 to 10 µM.
`CC1=C(Nc2ccc(C(=O)Nc3cccc4ccccc34)cc2)CCC1=O` [Example 03-16, 4-((2-methyl-3-oxocyclopent-1-en-1-yl)amino)-N-(naphthalen-1-yl)benzamide]: the half-inhibitory concentration (IC50) (on BRD4_2; in assay [1]) was 1 to 10 µM each time.
As for `CC1=C(Nc2ccc(C(=O)NCc3ccccc3)cc2)CCC1=O` [Example 03-18, N-benzyl-4-((2-methyl-3-oxocyclopent-1-en-1-yl)amino)benzamide], the IC50 (on BRD4_2; in assay [1]) was 1 to 10 µM throughout.
As for `CC1=C(Nc2ccc(C(=O)NC3CCCCC3)cc2)CCC1=O` [Example 03-19, N-cyclohexyl-4-((2-methyl-3-oxocyclopent-1-en-1-yl)amino)benzamide], the half-maximal inhibitory concentration (IC50) (at BRD4_2; in assay [1]) was 1 to 10 µM each time.
Take `CC1=C(Nc2ccc(C(=O)N(C)C)cc2)CCC1=O` [Example 03-20, N,N-dimethyl-4-((2-methyl-3-oxocyclopent-1-en-1-yl)amino)benzamide]: the IC50 (at BRD4_2; in assay [1]) was greater than 10 µM in each case.
`CC1=C(Nc2cccc(C(=O)Nc3ccccc3)c2)CCC1=O` [Example 03-23, 3((2-methyl-3-oxocyclopent-1-en-1-yl)amino)-N-phenylbenzamide]: the IC50 (on BRD4_2; in assay [1]) was 1 to 10 µM each time.
In the case of `CC1=C(Nc2cccc(C(=O)NC3CCCCC3)c2)CCC1=O` [Example 04-1], the IC50 (at BRD4_2; in assay [1]) was 1 to 10 µM each time.
With `CC1=C(Nc2cccc(C(=O)Nc3cccc4ccccc34)c2)CCC1=O` [Example 04-2], the IC50 (at BRD4_2; in assay [1]) was 1 to 10 µM each time.
Consider `CC1=C(Nc2cccc(C(=O)Nc3ccncc3)c2)CCC1=O` [Example 04-3], for which the results for the half-maximal inhibitory concentration (IC50) (on BRD4_2; in assay [1]) were greater than 10 µM and 1 to 10 µM, respectively.
For `COc1ccc(NC(=O)c2cccc(NC3=C(C)C(=O)CC3)c2)cc1` [Example 04-4], the IC50 (at BRD4_2; in assay [1]) was 1 to 10 µM in each case.
With `CC1=C(Nc2cccc(C(=O)Nc3ccccc3C)c2)CCC1=O` [Example 04-5], the concentration for half-maximal inhibition (IC50) (at BRD4_2; in assay [1]) was 1 to 10 µM each time.
As to `CC1=C(Nc2cccc(C(=O)Nc3cccc(C)c3)c2)CCC1=O` [Example 04-6], the IC50 was greater than 10 µM at BRD4_2 and 1 to 10 µM in assay [1].
Regarding `CC1=C(Nc2cccc(C(=O)Nc3ccc(C)cc3)c2)CCC1=O` [Example 04-7], the IC50 on BRD4_2 was greater than 10 µM; in assay [1] it was 1 to 10 µM.

The IC50 is the point on the concentration scale where inhibition reaches its midpoint.
